Structures are written as SMILES. Activity calls are given as the source filed them.

The target in experiment [1] is Intestinal-type alkaline phosphatase (Homo sapiens, UniProt P09923). Description: human intestinal alkaline phosphatase activators, dose response, biochemical, luminescence, uHTS hits (AID 463120). The experiment is classed as functional.
In experiment [2] the target is T1, Mu-type opioid receptor (Homo sapiens, UniProt P35372). As to the kind of experiment: MOR antagonists, SAR follow-up, image-based (AID 2420).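 Note: compounds added before stimulation of receptor with agonist DAMGO.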 The experiment is classed as functional.
T1 sequence (P35372 whole entry): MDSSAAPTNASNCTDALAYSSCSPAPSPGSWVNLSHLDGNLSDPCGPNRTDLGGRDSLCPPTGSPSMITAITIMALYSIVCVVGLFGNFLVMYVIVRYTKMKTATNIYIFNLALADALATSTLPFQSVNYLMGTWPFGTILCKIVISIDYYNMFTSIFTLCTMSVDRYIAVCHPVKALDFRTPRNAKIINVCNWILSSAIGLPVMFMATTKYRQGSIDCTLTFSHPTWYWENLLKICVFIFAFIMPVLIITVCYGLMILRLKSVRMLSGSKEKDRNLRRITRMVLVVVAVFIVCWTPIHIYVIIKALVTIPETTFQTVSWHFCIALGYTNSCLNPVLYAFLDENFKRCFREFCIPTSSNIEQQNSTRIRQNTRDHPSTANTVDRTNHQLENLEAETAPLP
For experiment [3], the target named is Melanin-concentrating hormone receptor 1 (Homo sapiens, UniProt Q99705). Description: Fluorescence-based counterscreen for antagonists of the G-protein coupled receptor 7 (GPR7): cell-based high throughput dose response assay to identify antagonists of the melanin-concentrating hormone receptor 1 (MCHR1). Type of experiment: functional. For orientation: Counterscreens check selectivity or assay interference.
Melanin-concentrating hormone receptor 1, sequence (Q99705 whole entry): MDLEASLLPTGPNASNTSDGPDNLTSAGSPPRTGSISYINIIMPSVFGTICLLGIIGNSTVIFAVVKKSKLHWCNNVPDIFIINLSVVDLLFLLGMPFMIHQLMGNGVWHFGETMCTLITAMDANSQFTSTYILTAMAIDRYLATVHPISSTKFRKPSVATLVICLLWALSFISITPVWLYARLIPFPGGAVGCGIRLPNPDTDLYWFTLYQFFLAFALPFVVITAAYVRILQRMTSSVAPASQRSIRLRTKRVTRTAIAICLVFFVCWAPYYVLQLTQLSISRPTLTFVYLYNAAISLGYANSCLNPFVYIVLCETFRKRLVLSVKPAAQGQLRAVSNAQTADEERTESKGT

Experiment [4] has as its target T2, Kappa-type opioid receptor (Homo sapiens, UniProt P41145). As to the kind of experiment: KOR antagonists by imaging, SAR follow-up, image-based (AID 2348). Type of experiment: functional.
Experiment [5] deals with T3, Delta-type opioid receptor (Homo sapiens, UniProt P41143). Description: DOR agonists, SAR follow-up, image-based (AID 2370). Type of experiment: functional.
T3 sequence (P41143 whole entry): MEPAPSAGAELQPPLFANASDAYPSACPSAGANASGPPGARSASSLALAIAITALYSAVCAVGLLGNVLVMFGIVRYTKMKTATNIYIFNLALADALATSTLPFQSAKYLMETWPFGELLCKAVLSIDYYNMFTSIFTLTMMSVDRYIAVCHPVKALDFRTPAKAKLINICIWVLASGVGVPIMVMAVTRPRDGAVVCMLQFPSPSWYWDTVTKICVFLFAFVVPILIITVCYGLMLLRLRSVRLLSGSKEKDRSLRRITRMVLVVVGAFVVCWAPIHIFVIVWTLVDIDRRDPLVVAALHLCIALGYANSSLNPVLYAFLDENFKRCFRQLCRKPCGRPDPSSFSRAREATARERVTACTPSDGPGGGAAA
Experiment [6] concerns the target T3, Delta-type opioid receptor. As to the kind of experiment: DOR antagonists, SAR follow-up, image-based (AID 2357). Type of experiment: functional.
The target of experiment [7] is T4, Neuropeptides B/W receptor type 1 (Homo sapiens, UniProt P48145).
T4 sequence (P48145 whole entry): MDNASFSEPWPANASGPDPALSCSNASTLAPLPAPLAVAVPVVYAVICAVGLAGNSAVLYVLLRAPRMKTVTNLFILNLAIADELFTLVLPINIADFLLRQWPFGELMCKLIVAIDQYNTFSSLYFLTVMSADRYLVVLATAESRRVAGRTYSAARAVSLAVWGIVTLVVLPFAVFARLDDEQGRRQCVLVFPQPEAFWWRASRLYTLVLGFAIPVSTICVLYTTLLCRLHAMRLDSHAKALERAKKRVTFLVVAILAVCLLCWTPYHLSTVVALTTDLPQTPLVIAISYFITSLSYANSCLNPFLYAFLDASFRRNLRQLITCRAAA
Description: Fluorescence-based dose response cell-based high throughput screening assay to identify antagonists of the G-protein coupled receptor 7 (GPR7). [Related pubchem assays: 1952 (Screening assay (GPR7 antagonists).), 1880 (Summary AID.)]. Type of experiment: functional.

The target in experiment [8] is T2, Kappa-type opioid receptor. Description: SAR analysis of small molecule agonists of the kappa opioid receptor via a luminescent beta-arrestin assay. [Related pubchem assays (depositor defined):AID1777, AID1786, AID1966, AID2133, AID2136, AID2348, AID2352, AID2357, AID2359, AID2370, AID2420, AID2478, AID2491, AID2492, AID2493, AID2497, AID2498, AID2500, AID449737, AID488822, AID488842]. Type of experiment: functional.

In experiment [9] the target is T1, Mu-type opioid receptor. Description: MOR agonists by imaging, SAR follow-up, image-based (AID 2352). Type of experiment: functional.
The target of experiment [10] is T2, Kappa-type opioid receptor. Description: KOR agonist analogs, imaging readout, SAR follow-up, image-based (AID 2359). The experiment is classed as functional.
Experiment [11] deals with T5, Runt-related transcription factor 1/Core-binding factor subunit beta (Homo sapiens, UniProt Q01196+Q13951). As to the kind of experiment: inhibitors of RUNX1 Runt–CBFb-SMMHC binding, primary screen, biochemical, FRET, Cerulean-Runt, Venus-CBFb-SMMHC, uHTS (AID 1434).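 Note: partner is the CBFb-SMMHC leukemia fusion protein rather than wild-type CBFb.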 Type of experiment: protein assay.
T5 sequence (Q01196 whole entry, the tested form may be a part): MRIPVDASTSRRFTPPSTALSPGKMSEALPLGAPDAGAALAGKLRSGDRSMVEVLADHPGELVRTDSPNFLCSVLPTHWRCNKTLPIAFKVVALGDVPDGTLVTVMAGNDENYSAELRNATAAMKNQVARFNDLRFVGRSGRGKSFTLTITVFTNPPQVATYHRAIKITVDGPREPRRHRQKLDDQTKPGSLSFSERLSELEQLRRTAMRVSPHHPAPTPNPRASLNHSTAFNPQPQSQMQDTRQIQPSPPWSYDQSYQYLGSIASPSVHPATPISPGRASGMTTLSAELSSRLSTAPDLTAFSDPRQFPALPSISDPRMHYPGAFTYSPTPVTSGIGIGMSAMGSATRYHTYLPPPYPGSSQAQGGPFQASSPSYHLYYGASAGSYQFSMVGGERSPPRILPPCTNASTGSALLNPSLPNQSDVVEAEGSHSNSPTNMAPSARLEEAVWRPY
T5 sequence (Q13951 whole entry, the tested form may be a part): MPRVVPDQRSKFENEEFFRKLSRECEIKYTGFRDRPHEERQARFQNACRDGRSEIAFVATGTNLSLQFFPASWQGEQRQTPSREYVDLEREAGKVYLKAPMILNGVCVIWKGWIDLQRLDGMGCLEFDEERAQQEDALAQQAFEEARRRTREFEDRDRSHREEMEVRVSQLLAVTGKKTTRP
For experiment [12], the target named is T5, Runt-related transcription factor 1/Core-binding factor subunit beta. Description: inhibitors of RUNX1 Runt–CBFb-SMMHC binding, biochemical, TR-FRET (AID 1438). The experiment is classed as protein assay.
In experiment [13] the target is Ion channel NompC (Danio rerio, UniProt Q7T1G6). Description: Dose response cell-based high-throughput screening assay for agonists of the transient receptor potential channel N1 (TRPN1). [Related pubchem assays (depositor defined):AID1424, AID1448]. The experiment is classed as functional.
Ion channel NompC, sequence (Q7T1G6 whole entry): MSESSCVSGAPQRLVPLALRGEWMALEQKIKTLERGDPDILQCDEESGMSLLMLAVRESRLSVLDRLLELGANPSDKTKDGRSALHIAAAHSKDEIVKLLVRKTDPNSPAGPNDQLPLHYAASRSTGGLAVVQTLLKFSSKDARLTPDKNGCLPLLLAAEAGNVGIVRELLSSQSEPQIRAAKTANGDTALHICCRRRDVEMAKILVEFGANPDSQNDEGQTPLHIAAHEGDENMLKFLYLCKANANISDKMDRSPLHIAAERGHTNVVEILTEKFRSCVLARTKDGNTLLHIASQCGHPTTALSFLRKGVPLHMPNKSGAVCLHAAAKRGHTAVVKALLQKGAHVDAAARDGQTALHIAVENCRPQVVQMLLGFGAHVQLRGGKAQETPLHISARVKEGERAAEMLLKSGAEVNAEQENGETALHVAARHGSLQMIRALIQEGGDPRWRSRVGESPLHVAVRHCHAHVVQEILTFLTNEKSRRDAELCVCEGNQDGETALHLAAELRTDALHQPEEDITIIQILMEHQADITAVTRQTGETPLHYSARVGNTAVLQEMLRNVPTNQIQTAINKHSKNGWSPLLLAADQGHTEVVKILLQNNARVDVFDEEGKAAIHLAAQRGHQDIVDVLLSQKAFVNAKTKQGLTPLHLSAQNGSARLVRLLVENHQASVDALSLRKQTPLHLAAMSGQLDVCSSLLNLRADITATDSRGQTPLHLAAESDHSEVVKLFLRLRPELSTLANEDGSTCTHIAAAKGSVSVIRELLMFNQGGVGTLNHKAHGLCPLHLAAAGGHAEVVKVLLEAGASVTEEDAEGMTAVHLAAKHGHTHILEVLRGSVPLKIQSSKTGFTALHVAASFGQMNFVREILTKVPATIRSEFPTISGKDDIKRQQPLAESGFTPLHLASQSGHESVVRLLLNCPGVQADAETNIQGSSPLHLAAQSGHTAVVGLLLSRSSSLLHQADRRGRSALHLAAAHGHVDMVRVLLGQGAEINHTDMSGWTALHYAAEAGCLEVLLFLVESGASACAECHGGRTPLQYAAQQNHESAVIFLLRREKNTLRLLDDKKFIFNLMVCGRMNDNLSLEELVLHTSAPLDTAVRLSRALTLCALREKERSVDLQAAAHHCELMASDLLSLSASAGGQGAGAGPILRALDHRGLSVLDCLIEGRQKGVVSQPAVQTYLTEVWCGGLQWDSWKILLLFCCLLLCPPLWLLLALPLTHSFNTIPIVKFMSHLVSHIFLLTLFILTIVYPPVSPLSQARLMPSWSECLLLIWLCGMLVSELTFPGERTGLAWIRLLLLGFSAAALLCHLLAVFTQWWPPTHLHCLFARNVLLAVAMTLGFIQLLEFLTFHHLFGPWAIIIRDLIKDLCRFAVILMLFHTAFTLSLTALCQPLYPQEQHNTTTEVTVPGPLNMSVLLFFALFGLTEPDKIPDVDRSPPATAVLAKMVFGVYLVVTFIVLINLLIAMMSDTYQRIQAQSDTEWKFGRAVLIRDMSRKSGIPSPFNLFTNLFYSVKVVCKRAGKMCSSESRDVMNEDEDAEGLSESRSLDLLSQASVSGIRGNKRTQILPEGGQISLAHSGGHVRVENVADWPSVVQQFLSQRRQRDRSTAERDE
The target of experiment [14] is Mucolipin-3 (Homo sapiens, UniProt Q8TDD5). As to the kind of experiment: Fluorescence counterscreen assay for […] agonists: dose response cell-based high-throughput screening assay to identify agonists of the transient receptor potential channel ML3 (TRPML3). [Related pubchem assays: 1424, 1448 ]. The experiment is classed as functional.
Mucolipin-3, sequence (Q8TDD5 whole entry): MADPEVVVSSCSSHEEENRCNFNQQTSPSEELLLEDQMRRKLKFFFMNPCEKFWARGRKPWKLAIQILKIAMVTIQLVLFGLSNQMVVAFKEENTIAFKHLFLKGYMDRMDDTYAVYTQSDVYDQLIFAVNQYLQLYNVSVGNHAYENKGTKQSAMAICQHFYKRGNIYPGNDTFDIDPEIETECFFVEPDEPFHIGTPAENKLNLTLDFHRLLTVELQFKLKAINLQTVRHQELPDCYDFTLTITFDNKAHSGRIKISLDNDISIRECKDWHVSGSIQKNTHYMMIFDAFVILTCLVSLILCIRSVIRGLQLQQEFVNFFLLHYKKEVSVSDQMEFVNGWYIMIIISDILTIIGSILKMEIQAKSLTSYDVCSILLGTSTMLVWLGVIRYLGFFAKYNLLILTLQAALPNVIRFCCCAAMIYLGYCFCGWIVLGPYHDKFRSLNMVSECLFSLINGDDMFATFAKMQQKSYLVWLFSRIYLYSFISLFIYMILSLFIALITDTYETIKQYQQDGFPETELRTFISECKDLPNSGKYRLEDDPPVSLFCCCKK

T2 sequence (P41145 whole entry): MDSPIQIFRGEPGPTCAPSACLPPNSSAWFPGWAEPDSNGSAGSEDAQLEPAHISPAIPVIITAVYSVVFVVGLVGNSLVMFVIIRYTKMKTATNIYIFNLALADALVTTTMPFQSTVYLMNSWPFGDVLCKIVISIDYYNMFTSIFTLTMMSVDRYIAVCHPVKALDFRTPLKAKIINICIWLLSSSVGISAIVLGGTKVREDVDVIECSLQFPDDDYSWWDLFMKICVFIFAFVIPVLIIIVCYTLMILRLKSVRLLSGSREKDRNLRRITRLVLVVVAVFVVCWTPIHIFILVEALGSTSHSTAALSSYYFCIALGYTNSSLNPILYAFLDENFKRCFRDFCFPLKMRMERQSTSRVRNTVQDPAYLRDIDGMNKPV
Intestinal-type alkaline phosphatase, sequence (P09923 whole entry): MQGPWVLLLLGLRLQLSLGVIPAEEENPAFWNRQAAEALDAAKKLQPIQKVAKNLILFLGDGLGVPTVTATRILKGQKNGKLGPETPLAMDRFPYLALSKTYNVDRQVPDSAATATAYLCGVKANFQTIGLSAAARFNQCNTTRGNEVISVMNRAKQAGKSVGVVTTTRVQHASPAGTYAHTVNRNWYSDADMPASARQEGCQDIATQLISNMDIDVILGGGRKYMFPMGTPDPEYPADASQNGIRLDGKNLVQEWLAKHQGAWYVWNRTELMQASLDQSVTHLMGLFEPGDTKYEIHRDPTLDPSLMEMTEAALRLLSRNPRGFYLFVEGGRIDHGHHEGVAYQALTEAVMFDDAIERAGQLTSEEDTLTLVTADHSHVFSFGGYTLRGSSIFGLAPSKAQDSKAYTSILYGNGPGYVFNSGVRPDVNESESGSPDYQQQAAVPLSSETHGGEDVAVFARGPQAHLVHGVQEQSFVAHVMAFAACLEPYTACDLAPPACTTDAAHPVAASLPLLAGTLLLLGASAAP

For orientation: EC50 means the concentration that produces a half-maximal response. For `Cc1cc(C)c2nc(SCC(=O)NNC(=O)c3ccco3)c(C)cc2c1`, in [1], the EC50 is 12.7 µM (active).
One may read the IC50 as the point on the concentration scale where inhibition reaches its midpoint. In the case of `O=C(c1cnccn1)N(Cc1ccco1)C1(C(=O)NC2CCCC2)CCCCC1`, the IC50 was > 32 µM (inactive) in experiment [2]; > 43.8 µM (not active) in experiment [3]; > 32 µM (inactive) in [4]; > 32 µM (inactive) in [6]; > 43.8 µM (not active) in experiment [7]. For the same compound, the EC50 in experiment [5] was > 32 µM (inactive); in [8], > 10 µM (inactive); in experiment [9], > 32 µM (inactive); in experiment [10], > 32 µM (inactive).
On to `CC(C)C(=O)N(c1cc2sc(=O)oc2c2ccccc12)S(=O)(=O)c1cccs1`, for which the IC50 in experiment [11] and in [12] was > 100 µM (inactive) each time.
On to `CCN1CCN(CCNC(=O)c2cn(Cc3ccccc3F)nn2)CC1`, for which the EC50 in experiment [13] was > 29.9 µM (inactive); in [14], > 29.9 µM (not active).

The record behind these values is ChEMBL document CHEMBL1201862, “PubChem BioAssay data set” (2004).
